Test results published in patent US9969749B2, “Inhibitors of IRAK4 activity” (MERCK SHARP & DOHME CORP., priority 2014, dated 2018).

Each molecule was assayed against IRAK4 (Homo sapiens (Human), UniProt Q9NWZ3) (assay: IRAK4 Kinase Assay (IMAP fluorescence polarization)). Conditions: 0.5 nM GST tagged IRAK4, 100 μM ATP, 100 nM fluorescent peptide substrate RP7030, 30 minutes at 25° C.
Sequence of IRAK4 (Q9NWZ3 whole entry): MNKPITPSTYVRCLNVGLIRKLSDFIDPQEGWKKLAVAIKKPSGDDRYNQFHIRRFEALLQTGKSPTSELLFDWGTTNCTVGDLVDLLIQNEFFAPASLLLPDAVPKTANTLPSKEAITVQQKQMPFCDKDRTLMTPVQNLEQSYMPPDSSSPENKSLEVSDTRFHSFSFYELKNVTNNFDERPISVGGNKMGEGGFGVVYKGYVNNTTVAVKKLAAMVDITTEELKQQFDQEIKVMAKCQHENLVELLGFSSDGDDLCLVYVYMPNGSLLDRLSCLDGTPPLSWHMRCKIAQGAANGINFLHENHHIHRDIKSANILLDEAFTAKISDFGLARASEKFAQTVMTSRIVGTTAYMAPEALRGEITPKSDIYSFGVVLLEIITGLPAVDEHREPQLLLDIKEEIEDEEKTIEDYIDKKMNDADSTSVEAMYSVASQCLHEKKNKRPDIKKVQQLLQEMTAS
Assay type: biochemical
Outline: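 GST-tagged IRAK4 (0.5 nM) phosphorylates 100 nM fluorescent peptide with 100 μM ATP in 10 mM Tris pH 7.2, 1 mM MgCl2, 1 mM DTT, 0.01% Tween 20 for 30 min at 25 °C. Phosphorylation read as IMAP nanoparticle-binding fluorescence polarization after stop reagent.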
Work on Fc1c[nH]nc1-c1ccc2ncnc(N[C@H]3CC[C@H](N4CCOCC4)CC3)c2c1 [Example 2-9, 6-(4-fluoro-1H-pyrazol-3-yl)-N-(trans-4-morpholin-4-ylcyclohexyl)quinazolin-4-amine] yielded an IC50 of 12 nM. With N#Cc1n[nH]cc1-c1ccc2ncnc(N[C@H]3CC[C@H](N4CCOCC4)CC3)c2c1 [Example 2-10, 4-{4-[(trans-4-morpholin-4-ylcyclohexyl)amino]quinazolin-6-yl}-1H-pyrazole-3-carbonitrile] the IC50 was 8 nM. N#Cc1nn[nH]c1-c1ccc2ncnc(N[C@H]3CC[C@H](N4CCOCC4)CC3)c2c1 [Example 2-11, 5-{4-[(trans-4-morpholin-4-ylcyclohexyl)amino]quinazolin-6-yl}-1H-1,2,3-triazole-4-carbonitrile] was tested, and the IC50 was 62 nM. Cn1cc(-c2ccc3ncnc(N[C@H]4CC[C@H](N5CCOCC5)CC4)c3c2)c(CO)n1 [Example 2-12, (1-methyl-4-{4-[(trans-4-morpholin-4-ylcyclohexyl)amino]quinazolin-6-yl}-1H-pyrazol-3-yl)methanol] showed an IC50 of 261 nM. Cn1nccc1-c1ccc2ncnc(N[C@H]3CC[C@H](N4CCOCC4)CC3)c2c1 [Example 2-13, 6-(1-methyl-1H-pyrazol-5-yl)-N-(trans-4-morpholin-4-ylcyclohexyl)quinazolin-4-amine] was tested, and the IC50 was 324 nM. For FC(F)(F)c1n[nH]cc1-c1ccc2ncnc(N[C@H]3CC[C@H](N4CCOCC4)CC3)c2c1 [Example 2-14, N-(trans-4-morpholin-4-ylcyclohexyl)-6-[3-(trifluoromethyl)-1H-pyrazol-4-yl]quinazolin-4-amine], the IC50 was 80 nM. Cn1nncc1-c1ccc2ncnc(N[C@H]3CC[C@H](N4CCOCC4)CC3)c2c1 [Example 2-15, 6-(1-methyl-1H-1,2,3-triazol-5-yl)-N-(trans-4-morpholin-4-ylcyclohexyl)quinazolin-4-amine] showed an IC50 of 152 nM. For c1nc(N[C@H]2CC[C@H](N3CCOCC3)CC2)c2cc(-c3cnc4c(c3)NCC4)ccc2n1 [Example 2-16, 6-(2,3-dihydro-1H-pyrrolo[3,2-b]pyridin-6-yl)-N-[trans-4-(morpholin-4-yl)cyclohexyl]quinazolin-4-amine], the IC50 was 48 nM. In the case of N#Cc1sccc1-c1ccc2ncnc(N[C@H]3CC[C@H](N4CCOCC4)CC3)c2c1 [Example 2-17, 3-(4-{[trans-4-(morpholin-4-yl)cyclohexyl]amino}quinazolin-6-yl)thiophene-2-carbonitrile], the IC50 is reported as 41 nM. Work on N#Cc1cscc1-c1ccc2ncnc(N[C@H]3CC[C@H](N4CCOCC4)CC3)c2c1 [Example 2-18, 4-(4-{[trans-4-(morpholin-4-yl)cyclohexyl]amino}quinazolin-6-yl)thiophene-3-carbonitrile] yielded an IC50 of 52 nM. Molecule Cc1nc[nH]c1-c1ccc2ncnc(N[C@H]3CC[C@H](N4CCOCC4)CC3)c2c1 [Example 2-19, 6-(4-methyl-1H-imidazol-5-yl)-N-[trans-4-(morpholin-4-yl)cyclohexyl]quinazolin-4-amine] has an IC50 of 184 nM. For Cc1n[nH]cc1-c1ccc2ncnc(N[C@H]3CC[C@H](N4CCOCC4)CC3)c2c1 [Example 2-20, 6-(3-methyl-1H-pyrazol-4-yl)-N-[trans-4-(morpholin-4-yl)cyclohexyl]quinazolin-4-amine], the IC50 was 22 nM. Work on Cc1c(-c2ccc3ncnc(N[C@H]4CC[C@H](N5CCOCC5)CC4)c3c2)cnn1C [Example 2-21, 6-(1,5-dimethyl-1H-pyrazol-4-yl)-N-[trans-4-(morpholin-4-yl)cyclohexyl]quinazolin-4-amine] yielded an IC50 of 126 nM. Cc1c[nH]c(-c2ccc3ncnc(N[C@H]4CC[C@H](N5CCOCC5)CC4)c3c2)n1 [Example 2-22, 6-(4-methyl-1H-imidazol-2-yl)-N-[trans-4-(morpholin-4-yl)cyclohexyl]quinazolin-4-amine] showed an IC50 of 492 nM. With Cc1cn(C)c(-c2ccc3ncnc(N[C@H]4CC[C@H](N5CCOCC5)CC4)c3c2)n1 [Example 2-23, 6-(1,4-dimethyl-1H-imidazol-2-yl)-N-[trans-4-(morpholin-4-yl)cyclohexyl]quinazolin-4-amine] the IC50 was 1190 nM. Cc1n[nH]c(C)c1-c1ccc2ncnc(N[C@H]3CC[C@H](N4CCOCC4)CC3)c2c1 [Example 2-24, 6-(3,5-dimethyl-1H-pyrazol-4-yl)-N-[trans-4-(morpholin-4-yl)cyclohexyl]quinazolin-4-amine] showed an IC50 of 104 nM. Molecule Cc1nc(-c2ccc3ncnc(N[C@H]4CC[C@H](N5CCOCC5)CC4)c3c2)c[nH]1 [Example 2-25, 6-(2-methyl-1H-imidazol-4-yl)-N-[trans-4-(morpholin-4-yl)cyclohexyl]quinazolin-4-amine] has an IC50 of 88 nM. Molecule Cn1ccnc1-c1ccc2ncnc(N[C@H]3CC[C@H](N4CCOCC4)CC3)c2c1 [Example 2-26, 6-(1-methyl-1H-imidazol-2-yl)-N-[trans-4-(morpholin-4-yl)cyclohexyl]quinazolin-4-amine] has an IC50 of 562 nM. Cn1ncnc1-c1ccc2ncnc(N[C@H]3CC[C@H](N4CCOCC4)CC3)c2c1 [Example 2-27, 6-(1-methyl-1H-1,2,4-triazol-5-yl)-N-[trans-4-(morpholin-4-yl)cyclohexyl]quinazolin-4-amine] showed an IC50 of 159 nM. c1nc(N[C@H]2CC[C@H](N3CCOCC3)CC2)c2cc(-c3cnoc3)ccc2n1 [Example 2-28, 6-(isoxazol-4-yl)-N-[trans-4-(morpholin-4-yl)cyclohexyl]quinazolin-4-amine] showed an IC50 of 2 nM. For COc1cc(-c2ccc3ncnc(N[C@H]4CC[C@H](N5CCOCC5)CC4)c3c2)cnc1F [Example 2-29, 6-(6-fluoro-5-methoxypyridin-3-yl)-N-[trans-4-(morpholin-4-yl)cyclohexyl]quinazolin-4-amine], the IC50 was 20 nM. Oc1cc(-c2ccc3ncnc(N[C@H]4CC[C@H](N5CCOCC5)CC4)c3c2)cnc1F [Example 2-30, 2-fluoro-5-(4-{[trans-4-(morpholin-4-yl)cyclohexyl]amino}quinazolin-6-yl)pyridin-3-ol] was tested, and the IC50 was < 0.5 nM. In the case of CN(C)c1cc(-c2ccc3ncnc(N[C@H]4CC[C@H](N5CCOCC5)CC4)c3c2)cnc1F [Example 2-31, 6-[5-(dimethylamino)-6-fluoropyridin-3-yl]-N-[trans-4-(morpholin-4-yl)cyclohexyl]quinazolin-4-amine], the IC50 is reported as 73 nM. Molecule CNc1cc(-c2ccc3ncnc(N[C@H]4CC[C@H](N5CCOCC5)CC4)c3c2)cnc1F [Example 2-32, 6-[6-fluoro-5-(methylamino)pyridin-3-yl]-N-[trans-4-(morpholin-4-yl)cyclohexyl]quinazolin-4-amine] has an IC50 of 1 nM. Molecule Fc1cc(-c2ccc3ncnc(N[C@H]4CC[C@H](N5CCOCC5)CC4)c3c2)cnc1Cl [Example 2-33, 6-(6-chloro-5-fluoropyridin-3-yl)-N-[trans-4-(morpholin-4-yl)cyclohexyl]quinazolin-4-amine] has an IC50 of 28 nM. Fc1cc(-c2ccc3ncnc(N[C@H]4CC[C@H](N5CCOCC5)CC4)c3c2)cnc1F [Example 2-34, 6-(5,6-difluoropyridin-3-yl)-N-[trans-4-(morpholin-4-yl)cyclohexyl]quinazolin-4-amine] gave an IC50 of 13 nM. FC(F)c1cncc(-c2ccc3ncnc(N[C@H]4CC[C@H](N5CCOCC5)CC4)c3c2)c1 [Example 2-35, 6-[5-(difluoromethyl)pyridin-3-yl]-N-[trans-4-(morpholin-4-yl)cyclohexyl]quinazolin-4-amine] gave an IC50 of 37 nM.
